The test system of test [1] is 293 cells. Description: Cell survival (crystal violet staining) in 293 cells. The note with it: not shown. The format is cell-based, human. Here is the method:
(§1) FIG. 3: Arachidonic acid induces apoptosis via activation of caspase 3. (A) Determination of cell survival. AA was added to 293 cells at the indicated concentrations and the surviving fraction of cells was determined after 44 hr. The values shown are relative to the viability of cells that were not exposed to AA. (B) Increased apoptosis in cells exposed to AA. Cells were treated with AA (300 μM) or palmitic acid (300 μM) under the same conditions as in A, and then apoptosis was detected with an ELISA. The mean values from triplicate determinations are shown. […] The 293 cells were treated with AA (300 μM; +AA) or vehicle alone (−AA) for 44 hr. The nuclei were stained with DAPI, and DNA strand breaks in individual cells were detected with a fluorescent TUNEL assay. The upper panels are the same field of cells (−AA) photographed under UV (left panels) and FITC filters (right panels). The lower panels illustrate apoptotic cells (+AA). The magnification is 80×. (D) Immunostaining with an anti-active caspase 3 antibody. Upper panels, control cells (−AA); lower panels, cells exposed to 300 μM AA. Left panels, DAPI staining; right panels, immunostaining with an antibody selective for active caspase 3. The magnification is 100×. […] The 293 cells were preincubated with caspase inhibitors (including DMQD, a caspase 3 inhibitor, and YVAD, a caspase 1 and 4 inhibitor (Peptide Institute)) for 1 hr at the indicated concentrations, AA (300 μM) was added, and apoptosis was determined 44 hr later. The values represent the means from triplicate determinations.
(§2) Cell survival. Cell viability was determined with the crystal violet staining (See M. Hayakawa et al., 268 J. Biol. Chem. 11290-11295 (1993).

The subject of test [2] is 293 cells. Description: Apoptosis by Cell Death Detection ELISA in 293 cells. Format: cell-based, human. The settings on record: for effect of antioxidant pretreatment on AA-induced apoptosis: antioxidant 1 hr, then AA 200 μM. Here is the method: as §1
(§3) Cell Death Detection ELISA. Cells were plated on 96 well-plates at 1×10^4 cells per well. AA was applied and apoptotic death was determined after 44 hr with the Cell Death Detection ELISA (Boehringer Mannheim).

The test system of test [3] is colon and prostate cancer cells. The note with it: by down-regulating Bcl-2; literature reports; cited from earlier work.
The test system of the next test is COX-2 stable 293 cells. As to the kind of experiment: Apoptosis in stably transfected 293 cells with inducible COX-2 over-expression. The format is cell-based, human. The note with it: for reduction of fatty acid-induced apoptosis by inducing COX-2 over-expression: COX-2 over-expression induced, n=3; for effect on the prevention of apoptosis by COX-2: AA 300 μM, COX-2 over-expressing cells. Here is the method: (A) Conditional expression level of FACL4 and COX-2 in stably transfected lines. Cells were treated with (+) or without (−) ponasterone (1 μg/ml) for 48 hr, and Western blotting was carried out with anti-FACL4 and anti-COX-2 antibodies, respectively. The loading was normalized with an anti-β actin antibody (ICN Biomedicals). […] The 293 cells stably transfected with an empty control vector (Ctl), FACL4 cDNA, COX-2 cDNA, and both FACL4 and COX-2 cDNAs were uninduced (−Pon) or induced for over-expression (+Pon) as in A. AA (300 μM) was added after 24 hr of induction and apoptosis was determined 44 hr later. […] The plot is a comparison of the relative apoptosis levels among the stable lines and is representative of three independent experiments. The values shown are the averages of triplicate determinations. […] Cells were uninduced (−Pon) or induced for over-expression as above. […] COX inhibitors were administered 6 hr later as indicated. AA (300 μM) was then added after 2 hr and apoptosis was determined 44 hr later. The plot is prepared as in B, and is a representative result from three independent experiments, in which triplicates were performed. Wt=wild-type, Mut=mutant, Met=50 μM 6-methoxy-2-naphthyl acetic acid, Indo=10 μM indomethacin. […] The COX-2, FACL4/COX-2 stable and control cells carrying an empty vector were induced for 48 hr, washed and incubated with 20 μM AA at 37° C. for 30 min. The amount of PGE2 synthesized was determined by ELISA. […] (E) The levels of free AA in the stable lines. The [^3H]
as §3
Stable cell lines. The ecdysone inducible system (Invitrogen) was used to construct stable lines over-expressing human FACL4, COX-2, COX-2 mutant, and both FACL4 and COX-2. […] The cDNAs were cloned into pIND(SP1) (Neomycin^r). The cDNA constructs, or the empty vector pIND(SP1) were transfected into EcR293 cells, which were then selected in 400 μg/ml geneticin and 400 μg/ml zeocin. […] The double stable line was generated by stably transfecting the COX-2 stable cells with another pIND(SP1)-FACL4 cDNA construct, in which the FACL4 cDNA was cloned into a pIND(SP1) (hygromycin^r) vector. The cells were selected in 400 μg/ml geneticin, 400 μg/ml zeocin, and 50 μg/ml hygromycin B. The positive colonies were screened as described above.

The subject of the next test is HT 29 cells. Description: Apoptosis by Cell Death ELISA in HT 29 cells. Format: cell-based. Here is the method:
HT 29 Cells were plated in 96 wells. Triacsin C and AA were added (in A), or triacsin C with either indomethacin (Indo) or sulindac (Sul) (in B) were added at the indicated concentrations. Indomethacin and sulindac are both cyclooxygenase (COX) inhibitors. Apoptosis was determined by Cell Death ELISA 44 hr later (A), and 72 hr later (B), respectively. […] The values shown are the means of triplicate determinations.
as §3

The test system of test [4] is FACL4/COX-2 double stable cells. As to the kind of experiment: Cell survival of FACL4/COX-2 double stable cells after TNFα or A23187. The format is cell-based, human. Here is the method: FIG. 5: Enzymatic “sinks” for free arachidonic acid protect against TNFα_ and calcium ionophore_mediated cell killing. (A) Determination of cell survival. The cells were induced (+Pon) or not (−Pon) for 24 hr, and TNFα (1 ng/ml) or the calcium ionophore A23187 (5 μM) was added, and the cells were incubated for another 72 hr. The surviving fraction was determined and is plotted relative to that of the same line without TNFα or A23187 treatment. Ctl denotes control cells harboring an empty vector, while FACL4/COX-2 denotes the double stable line. (B) Measurement of the free AA. The FACL4/COX-2 cells were prelabeled with [^3H] AA, induced, and stimulated with A23187 (5 μM), and [^3H] AA release was measured at the indicated time intervals. The values are from one experiment that is representative of four independent determinations.
Stable cell lines. The ecdysone inducible system (Invitrogen) was used to construct stable lines over-expressing human FACL4, COX-2, COX-2 mutant, and both FACL4 and COX-2. […] The cDNAs were cloned into pIND(SP1) (Neomycin^r). The cDNA constructs, or the empty vector pIND(SP1) were transfected into EcR293 cells, which were then selected in 400 μg/ml geneticin and 400 μg/ml zeocin. A number of single colonies were screened for over-expression of FACL4, COX-2 wild type, and COX-2 mutant by immunoblotting against anti-FACL4 (See Y. Cao et al., 467 FEBS Lett. 263-267 (2000)), and anti-COX-2 antibodies (a gift from Dr. Jacques Maclouf), and by measurement of the CoA ligase activity for FACL4 (See D. B. Wilson et al., 257 J. Biol. Chem. 3510-3515 (1992)), or the PGE2 secretion for COX-2 wild type (ELISA assay, Assay Design, Inc.). The double stable line was generated by stably transfecting the COX-2 stable cells with another pIND(SP1)-FACL4 cDNA construct, in which the FACL4 cDNA was cloned into a pIND(SP1) (hygromycin^r) vector. The cells were selected in 400 μg/ml geneticin, 400 μg/ml zeocin, and 50 μg/ml hygromycin B. The positive colonies were screened as described above.
as §2

As for `CCCCC[C@H](O)/C=C/[C@H]1[C@H](O)CC(=O)[C@@H]1C/C=C\CCCC(=O)O` [PGE2], the “cell viability in the presence of exogenous AA” value with 293 cells [1] (50 μM added directly) was “did not improve cell viability”.
As to tocopherol, in the test on 293 cells [2] (293 cells, 44 hr), the “effect of antioxidant pretreatment on AA-induced apoptosis” value (from here on “effect of antioxidant pretreatment”) was “apoptosis decreased significantly”.
Turning to `CS(=O)(=O)Nc1ccc([N+](=O)[O-])cc1OC1CCCCC1` [NS398], in test [3], the “reported effect on apoptosis” value was “enhance the induction of apoptosis”.
Consider `CCCCCCCCCCCCCCCC(=O)O` [palmitic acid], for which the “induction of apoptosis by other fatty acids compared with AA” value in the test with 293 cells [2] is “did not cause the same response”. For the same compound, the “apoptosis (mono- and oligo-nucleosomes) over the control” value with 293 cells [2] (293 cells, 300 μM, 44 hr) is reported as “no increase”. In addition, the “fold-increase in apoptosis after fatty acid treatment” value (from here on “fold-increase in apoptosis”) with COX-2 stable 293 cells (200 μM) was determined as 4.2 fold. Besides, the “reduction of fatty acid-induced apoptosis by inducing COX-2 over-expression” value (“reduction” for short) with COX-2 stable 293 cells came out at 8.1%.
Turning to `CC/C=C\C/C=C\C/C=C\C/C=C\C/C=C\CCCC(=O)O` [EPA, eicosapentaenoic acid], the “fold-increase in apoptosis” value with COX-2 stable 293 cells (200 μM) was 9.1 fold. Moreover, the “reduction” value in the test on COX-2 stable 293 cells was 34.0%.
With `Cc1c(C)c2c(c(C)c1O)CCC(C)(C(=O)O)O2` (stereo not shown) [trolox], the “effect of antioxidant pretreatment” value with 293 cells [2] (293 cells, 44 hr) is recorded as “apoptosis decreased significantly”.
Take `CCCCCCCC/C=C\CCCCCCCC(=O)O` [oleic acid]: in the test on 293 cells [2], the “induction of apoptosis by other fatty acids compared with AA” value is on record as “did not cause the same response”.
For the compound `O=C1O[C@H]([C@@H](O)CO)C(O)=C1O` [ascorbic acid], the “effect of antioxidant pretreatment” value with 293 cells [2] (293 cells, 44 hr) is given as “apoptosis decreased significantly”.
For the compound “apo-transferrin: a membrane-impermeable antioxidant”, the “effect of antioxidant pretreatment” value in the test on 293 cells [2] (293 cells, 44 hr) was “did not alter AA-induced apoptosis”.
On to `CC/C=C\C/C=C\C/C=C\C/C=C\C/C=C\C/C=C\CCC(=O)O` [DHA, docosahexaenoic acid], for which the “fold-increase in apoptosis” value with COX-2 stable 293 cells (100 μM) is 15.1 fold. Further, in the test on COX-2 stable 293 cells, the “reduction” value is on record as 18.5%.
In the case of z-YVAD-fmk, the “blocking of AA-induced apoptosis by caspase inhibitor” value with 293 cells [2] (293 cells preincubated 1 hr with inhibitor, AA 300 μM, 44 hr) was “not”.
In the case of `CCCCC[C@H](O)/C=C/[C@H]1C(=O)C=C[C@@H]1C/C=C\CCCC(=O)O` [PGJ2], the “cell viability in the presence of exogenous AA” value in the test with 293 cells [1] (5 μM added directly) is recorded as “did not improve cell viability”.
On to `CCC/C=C/C/C=C/C=C/C=N/NN=O` [triacsin C], for which the “cell death with triacsin C alone” value in the test on HT 29 cells (2 μM) is reported as “did not cause cell death”. The “increase in apoptosis compared to control cells” value with HT 29 cells (10 μM) is given as 9 fold. Moreover, the induction of apoptosis result with HT 29 cells (Cell Death ELISA) is recorded as “induced apoptosis in a concentration-dependent manner”. Also, the “increase of the apoptosis-inducing effect of triacsin C in the presence of sulindac” value in the test with HT 29 cells (plus sulindac, 72 hr) is reported as 4-8 fold. The “apoptosis with triacsin C when indomethacin was added” value in the test on HT 29 cells (triacsin C 2 μM plus indomethacin, 72 hr) is “induced apoptosis”. Further, the “sensitization to AA-induced apoptosis” value in the test with HT 29 cells (triacsin C plus AA, 44 hr) is reported as “sensitized cells to AA-induced apoptosis”.
TNFα: the “surviving fraction, induced cells” value in test [4] (FACL4/COX-2 double stable cells induced with ponasterone, TNFα 1 ng/ml or A23187 5 μM, 72 hr, n=3) was found to be 70.5%. The “surviving fraction, uninduced cells” value in test [4] (FACL4/COX-2 double stable cells without induction, TNFα 1 ng/ml or A23187 5 μM, 72 hr, n=3) amounted to 43.5%.
`CC(Cc1ccc(O)c(O)c1)C(C)Cc1ccc(O)c(O)c1` (stereo not shown) [NDGA]: in the test on 293 cells [2] (293 cells), the induction of apoptosis entry is “induced apoptosis”.
Take `CCCCC[C@H](O)/C=C/C=C\C/C=C\C/C=C\CCCC(=O)O` [15-HETE]: in the test on 293 cells [1] (293 cells), the “effect on cell survival” value is listed as “did not affect cell survival”.
Consider `CS(=O)(=O)c1ccc(-n2nc(C(F)(F)F)cc2-c2ccc(F)cc2)cc1` [SC-58125], for which the “reported effect on apoptosis” value in test [3] is “enhance the induction of apoptosis”.
With `COc1ccc2cc(CC(=O)O)ccc2c1` [6-methoxy-2-naphthylacetic acid], in test [4] (double stable cells, not shown), the “effect on the improvement in cell survival in the double stable cells” value is “partially abolished the improvement in cell survival”. For the same compound, in the test on COX-2 stable 293 cells (50 μM), the “effect on the prevention of apoptosis by COX-2” value is “abolished the prevention of apoptosis by COX-2”.
For the compound `COc1ccc2c(c1)c(CC(=O)O)c(C)n2C(=O)c1ccc(Cl)cc1` [indomethacin], in the test with COX-2 stable 293 cells (10 μM), the “effect on the prevention of apoptosis by COX-2” value was “did not alter the apoptosis response”.
